# Results taken from US20160312315A1, “Methods and Compositions for Determining Virus Susceptibility to Integrase Inhibitors” (Laboratory Corporation of America Holdings, priority 2011, published 2016).
# Legend:
# Assay type in all cases: cell-based, HIV-1
# [1] = system: Y143R plus S230R site directed mutant virus; assay: PhenoSense raltegravir susceptibility assay, site directed mutant viruses; conditions: SDM virus, compared with Y143R alone
# Experimental: (§1) Raltegravir susceptibility tests performed with resistance test vectors were carried out using packaging host and target host cells consisting of the human embryonic kidney cell line 293. Susceptibility tests were carried out with the RTV libraries by using viral particles comprising the RTV libraries to infect a host cell in which the expression of the indicator gene is measured. The amount of indicator gene (luciferase) activity detected in infected cells is used as a direct measure of “infectivity,” i.e., the ability of the virus to complete a single round of replication. Thus, drug susceptibility can be determined by plotting the amount of luciferase activity produced by patient derived viruses in the presence of varying concentrations of the antiviral drug. By identifying the concentration of drug at which luciferase activity is half-maximum, the IC50 of the virus from which patient-derived segment(s) were obtained for the antiretroviral agent can be determined. […]
# (§2) In the susceptibility tests, packaging host (293) cells were seeded in 10-cm-diameter dishes and were transfected one day after plating with test vector plasmid DNA and the envelope expression vector. […] Alternatively, cells were lysed, and luciferase was measured by adding Steady-Glo (Promega Corp.; Madison, Wis.) reagent directly to each well without aspirating the culture media from the well. […]
# [2] = system: Y143C/G/S plus S230R site directed mutant viruses; assay: as above; conditions: SDM viruses vs NL4-3
# Experimental: as §1, §2
# [3] = system: other Y143X plus T97A site directed mutant viruses
# Experimental: as §1, §2
# [4] = system: Y143R site directed mutant virus; assay: PhenoSense raltegravir susceptibility assay, site directed mutant viruses; conditions: Y143R mutation alone, SDM virus vs NL4-3
# Experimental: (§3) Raltegravir susceptibility tests performed with resistance test vectors were carried out using packaging host and target host cells consisting of the human embryonic kidney cell line 293. Susceptibility tests were carried out with the RTV libraries by using viral particles comprising the RTV libraries to infect a host cell in which the expression of the indicator gene is measured. The amount of indicator gene (luciferase) activity detected in infected cells is used as a direct measure of “infectivity,” i.e., the ability of the virus to complete a single round of replication. Thus, drug susceptibility can be determined by plotting the amount of luciferase activity produced by patient derived viruses in the presence of varying concentrations of the antiviral drug. By identifying the concentration of drug at which luciferase activity is half-maximum, the IC50 of the virus from which patient-derived segment(s) were obtained for the antiretroviral agent can be determined. The IC50 provides a direct measure of the susceptibility of the HIV infecting the patient to raltegravir.
# as §2, with “vector. Transfections were performed using a calcium-phosphate co-precipitation procedure. The cell culture media containing the DNA precipitate was replaced with fresh medium, from one to 24 hours, after transfection.” for “vector.”
# (§4) Site directed mutant (SDM) viruses were created that had only the specific integrase mutation listed on the x-axis of FIG. 8A, 8B, or 8C. FIGS. 8A, 8B, and 8C are graphs showing the fold change (FC) in raltegravir susceptibility of the SDM viruses, as compared to the raltegravir susceptibility of an NL4-3 virus and determined by the PhenoSense assay. […]
# [5] = system: Y143R plus T97A site directed mutant virus; assay: as above; conditions: SDM virus vs NL4-3
# Experimental: as §3
# as §2, with “vector. Transfections were performed using a calcium-phosphate co-precipitation procedure. The cell culture media containing the DNA precipitate was replaced with fresh medium, from one to 24 hours, after transfection.” for “vector.”
# as §4
# [6] = system: other Y143X (Y143H/C/S/G) site directed mutant viruses; assay: as above; conditions: other Y143X substitutions alone, SDM viruses vs NL4-3
# Experimental: as §3
# as §2, with “vector. Transfections were performed using a calcium-phosphate co-precipitation procedure. The cell culture media containing the DNA precipitate was replaced with fresh medium, from one to 24 hours, after transfection.” for “vector.”
# as §4
compound,measurement,setting,value
Cc1nnc(C(=O)NC(C)(C)c2nc(C(=O)NCc3ccc(F)cc3)c(O)c(=O)n2C)o1 [raltegravir],further reduction in RAL susceptibility on addition of S230R,[1],did not
same,"fold change in IC50 (FC), reduction in RAL susceptibility",[2],15-24
same,"fold change in IC50 (FC), reduction in RAL susceptibility",[3],7-16
same,"fold change in IC50 (FC), reduction in RAL susceptibility",[4],20
same,"fold change in IC50 (FC), reduction in RAL susceptibility",[5],70
same,"fold change in IC50 (FC), reduction in RAL susceptibility",[6],3-6
